Where a name gives a salt, the structure may show the parent alone. Read-outs that look alike come from different tables or passages of the source.
Columns and labels:
[1] = system: Candida albicans (IFO 0538); experiment: Antifungal activity against Candida albicans, paper disc growth inhibition zone (Tables 5 and 6); type: cell-based; details: 28° C., 2 days incubation; for zone of inhibition at 1000 µg/mL: 48 h, read-out: Inhibition zone diameter
Method: The antifungal activities of the compounds (I) were evaluated by the following method: a sheet of filter paper disc (manufactured by Toyo Seisakusho, 8 mm in diameter) soaked in a 1000 μg/ml solution of a compound (I) in methanol was placed on an agar plate, which was incubated at 28° C. for 2 days, and the diameter of the growth inhibition zone around the filter paper disc was measured. The following culture media were used:
A: yeast nitrogen base agar medium
B: yeast nitrogen base agar medium (pH 7.0)

Candida albicans [2] = experiment: Infection-preventing effect in experimental infection in mice, Method 1 (Table 7-1); type: in vivo, Crj:CDF1 mice; details: given 0 and 2 hours after infection, survival 7 days after infection, total dose
Method: (§1) Method 1 (Table 7-1): To 5-week-old Crj:CDF1 mice the minimum lethal dose of Candida albicans was inoculated intravenously. The test drug was given twice 0 and 2 hours after infection. The effectiveness of the drug was expressed in ED50 values calculated by the Reed and Muench method from the survival rate 7 days after infection. The ED50 values were calculated based on the total dose given on the two occasions.

Candida albicans [3] = experiment: Infection-preventing effect in experimental infection in mice, Method 2 (Table 7-2); type: in vivo, Crj:CDF1 mice; details: po, 168 h, p.o., given just after infection, survival 7 days after infection
Method: as §1, with “Method 2” for “Method 1”, “(Table 7-2):” for “(Table 7-1):”, “given just” for “given twice 0 and 2 hours”

[4] = pH 7, B medium (yeast nitrogen base agar, pH 7.0)
[5] = Candida albicans, sc, 168 h, s.c., read-out: ED50
[6] = Candida albicans, po, 168 h, p.o., read-out: ED50
[7] = A medium (yeast nitrogen base agar)

## C[C@@H](SCc1nccn1CC(F)(F)F)[C@](O)(Cn1cncn1)c1ccc(F)cc1F (relative stereo) [Compound 49]
[1]; [4]
  zone of inhibition at 1000 µg/mL: 25 mm
Candida albicans [2]; [5]
  ED50: 1 mg/kg

## Cc1nnc(S[C@H](C)[C@](O)(Cn2cncn2)c2ccc(F)cc2F)s1 (relative stereo) [Compound 26]
[1]; [4]
  zone of inhibition at 1000 µg/mL: 45 mm
Candida albicans [2]; [5]
  ED50: 3.2 mg/kg

## Cc1csc(CS[C@H](C)[C@](O)(Cn2cncn2)c2ccc(F)cc2F)n1 (relative stereo) [Compound 37]
[1]; [4]
  zone of inhibition at 1000 µg/mL: 45 mm
Candida albicans [2]; [5]
  ED50: 1.4 mg/kg

## C[C@@H](SCc1nccn1CC1CC1)[C@](O)(Cn1cncn1)c1ccc(F)cc1F (relative stereo) [Compound 51]
[1]; [4]
  zone of inhibition at 1000 µg/mL: 28 mm
Candida albicans [2]; [5]
  ED50: 2 mg/kg

## CC(C)n1ccnc1CS[C@H](C)[C@](O)(Cn1cncn1)c1ccc(F)cc1F (relative stereo) [Compound 47]
[1]; [4]
  zone of inhibition at 1000 µg/mL: 25 mm
Candida albicans [2]; [5]
  ED50: 0.7 mg/kg

## C[C@@H](SCc1nccn1C1CC1)[C@](O)(Cn1cncn1)c1ccc(F)cc1F [Compound 110]
[1]; [4]
  zone of inhibition at 1000 µg/mL: 40 mm
Candida albicans [2]; [6]
  ED50: 0.35 mg/kg
Candida albicans [2]; [5]
  ED50: 0.35 mg/kg

## C[C@@H](SCc1nncn1C)[C@](O)(Cn1cncn1)c1ccc(F)cc1F (relative stereo) [Compound 33]
[1]; [4]
  zone of inhibition at 1000 µg/mL: 20 mm
Candida albicans [2]; [5]
  ED50: 0.45 mg/kg

## Cc1nc(CS[C@H](C)[C@](O)(Cn2cncn2)c2ccc(F)cc2F)sc1C (relative stereo) [Compound 36]
[1]; [4]
  zone of inhibition at 1000 µg/mL: 45 mm
Candida albicans [2]; [5]
  ED50: 3.2 mg/kg

## C[C@@H](SCc1ncnn1C)[C@](O)(Cn1cncn1)c1ccc(F)cc1F (relative stereo) [Compound 31]
[1]; [4]
  zone of inhibition at 1000 µg/mL: 40 mm
Candida albicans [2]; [5]
  ED50: 0.71 mg/kg

## C[C@@H](SCc1ncc2n1CCC2)[C@](O)(Cn1cncn1)c1ccc(F)cc1F (relative stereo) [Compound 35]
[1]; [4]
  zone of inhibition at 1000 µg/mL: 33 mm
Candida albicans [2]; [5]
  ED50: 0.71 mg/kg

## C[C@@H](SCc1ccncn1)[C@](O)(Cn1cncn1)c1ccc(F)cc1F [Compound 126]
[1]; [4]
  zone of inhibition at 1000 µg/mL: 38 mm
Candida albicans [3]
  ED50: 2 mg/kg

## C[C@@H](SCc1cncn1C)[C@](O)(Cn1cncn1)c1ccc(F)cc1F [Compound 91]
[1]; [4]
  zone of inhibition at 1000 µg/mL: 30 mm
Candida albicans [3]
  ED50: < 0.25 mg/kg

## C[C@@H](SCc1ncn(C)n1)[C@](O)(Cn1cncn1)c1ccc(F)cc1F (relative stereo) [Compound 32]
[1]; [4]
  zone of inhibition at 1000 µg/mL: 40 mm
Candida albicans [2]; [5]
  ED50: 3.2 mg/kg

## C[C@@H](SCc1nccn1C1CC1)[C@](O)(Cn1cncn1)c1ccc(F)cc1F (relative stereo) [Compound 55]
[1]; [4]
  zone of inhibition at 1000 µg/mL: 30 mm
Candida albicans [2]; [5]
  ED50: 0.5 mg/kg

## C[C@@H](SCc1nccn1C)[C@](O)(Cn1cncn1)c1ccc(F)cc1F [Compound 78]
[1]; [4]
  zone of inhibition at 1000 µg/mL: 30 mm
Candida albicans [3]
  ED50: 0.5 mg/kg

## C[C@@H](SCc1nccn1C)[C@](O)(Cn1cncn1)c1ccc(F)cc1F (relative stereo) [Compound 16]
[1]; [4]
  zone of inhibition at 1000 µg/mL: 25 mm
Candida albicans [2]; [5]
  ED50: 0.63 mg/kg

## C[C@@H](SCc1cn(C)cn1)[C@](O)(Cn1cncn1)c1ccc(F)cc1F (relative stereo) [Compound 28]
[1]; [4]
  zone of inhibition at 1000 µg/mL: 40 mm
Candida albicans [2]; [5]
  ED50: 0.65 mg/kg

## Cc1nccc(CS[C@H](C)[C@](O)(Cn2cncn2)c2ccc(F)cc2F)n1 [Compound 127]
[1]; [4]
  zone of inhibition at 1000 µg/mL: 33 mm
Candida albicans [3]
  ED50: 2 mg/kg

## C[C@@H](SCc1ncc2cnccn12)[C@](O)(Cn1cncn1)c1ccc(F)cc1F [Compound 112]
[1]; [4]
  zone of inhibition at 1000 µg/mL: 30 mm
Candida albicans [3]
  ED50: 0.5 mg/kg

## OC(Cn1cncn1)(c1ccc(F)cc1F)C1(S)CC1 (centres unmarked) [Compound 120]
[1]; [4]
  zone of inhibition at 1000 µg/mL: 30 mm
Candida albicans [3]
  ED50: 0.35 mg/kg

## CC(=O)S[C@H](C)[C@](O)(Cn1cncn1)c1ccc(F)cc1F (relative stereo) [Compound 40]
[1]; [4]
  zone of inhibition at 1000 µg/mL: 50 mm
Candida albicans [2]; [5]
  ED50: 0.35 mg/kg

## C[C@@H](SCc1nccn1CCF)[C@](O)(Cn1cncn1)c1ccc(F)cc1F (relative stereo) [Compound 48]
[1]; [4]
  zone of inhibition at 1000 µg/mL: 23 mm
Candida albicans [2]; [5]
  ED50: 0.77 mg/kg

## C[C@@H](SCc1cncn1C)[C@](O)(Cn1cncn1)c1ccc(F)cc1F (racemic) [Compound 29, (2RS,3RS)-2-(2,4-difluorophenyl)-3-(1-methylimidazol-5-yl)methylthio-1-(1H-1,2,4-triazol-1-yl)-2-butanol]
[1]; [4]
  zone of inhibition at 1000 µg/mL: 38 mm
Candida albicans [2]; [5]
  ED50: 0.71 mg/kg

## CC(SCC(O)(Cn1cncn1)c1ccc(F)cc1F)c1ccncc1 (centres unmarked) [Compound 10]
[1]; [7]
  Inhibition zone diameter: 21 mm
Candida albicans [2]; [5]
  ED50: 35.4 mg/kg

## C[C@@H](S)[C@](O)(Cn1cncn1)c1ccc(F)cc1F (racemic) [Compound 39, (2RS,3RS)-2-(2,4-difluorophenyl)-3-mercapto-1-(1H-1,2,4-triazol-1-yl)-2-butanol]
[1]; [4]
  zone of inhibition at 1000 µg/mL: 18 mm
Candida albicans [2]; [6]
  ED50: 0.35 mg/kg
Candida albicans [2]; [5]
  ED50: 0.19 mg/kg

## OC(CSCCn1cncn1)(Cn1cncn1)c1ccc(F)cc1F (centres unmarked) [Compound 2]
[1]; [7]
  zone of inhibition at 1000 µg/mL: 18 mm
[1]; [4]
  zone of inhibition at 1000 µg/mL: 17 mm
Candida albicans [2]; [5]
  ED50: 19.3 mg/kg

## C[C@@H](SCCc1nccn1C)[C@](O)(Cn1cncn1)c1ccc(F)cc1F (racemic) [Compound 50, (2RS,3RS)-2-(2,4-difluorophenyl)-3-[2-(1-methylimidazol-2-yl)ethyl]thio-1-(1H-1,2,4-triazol-1-yl)-2-butanol]
[1]; [4]
  zone of inhibition at 1000 µg/mL: 22 mm
Candida albicans [2]; [5]
  ED50: 3.2 mg/kg

## Cc1nc(CS[C@H](C)[C@](O)(Cn2cncn2)c2ccc(F)cc2F)cs1 (relative stereo) [Compound 52]
[1]; [4]
  zone of inhibition at 1000 µg/mL: 35 mm
Candida albicans [2]; [5]
  ED50: 2 mg/kg

## Cc1oc(=O)oc1CS[C@H](C)[C@](O)(Cn1cncn1)c1ccc(F)cc1F [Compound 111]
[1]; [4]
  zone of inhibition at 1000 µg/mL: 35 mm
Candida albicans [2]; [6]
  ED50: 0.89 mg/kg
Candida albicans [2]; [5]
  ED50: 0.71 mg/kg

## CC(C)C(=O)S[C@H](C)[C@](O)(Cn1cncn1)c1ccc(F)cc1F [Compound 62, (2R,3R)-2-(2,4-difluorophenyl)-3-isobutyrylthio-1-(1H-1,2,4-triazol-1-yl)-2-butanol]
[1]; [4]
  zone of inhibition at 1000 µg/mL: 45 mm
Candida albicans [2]; [6]
  ED50: 0.35 mg/kg
Candida albicans [2]; [5]
  ED50: 0.5 mg/kg

## C[C@H](S)[C@](O)(Cn1cncn1)c1ccc(F)cc1F (racemic) [Compound 60, (2RS,3SR)-2-(2,4-difluorophenyl)-3-mercapto-1-(1H-1,2,4-triazol-1-yl)-2-butanol]
[1]; [4]
  zone of inhibition at 1000 µg/mL: 30 mm
Candida albicans [2]; [5]
  ED50: > 4 mg/kg

## CC(=O)S[C@H](C)[C@](O)(Cn1cncn1)c1ccc(F)cc1F [Compound 45, (2R,3R)-3-acetylthio-2-(2,4-difluorophenyl)-1-(1H-1,2,4-triazol-1-yl)-2-butanol]
[1]; [4]
  zone of inhibition at 1000 µg/mL: 40 mm
Candida albicans [2]; [6]
  ED50: 0.18 mg/kg
Candida albicans [2]; [5]
  ED50: 0.16 mg/kg

## CC(n1cncn1)C(O)(CS)c1ccc(F)cc1F (single isomer, unassigned) [Compound 116, 2-(2,4-difluorophenyl)-1-mercapto-3-[(1H)-1,2,4-triazol-1-yl]-2-butanol]
[1]; B medium (yeast nitrogen base agar, pH 7.0)
  Inhibition zone diameter: 30 mm
Candida albicans [2]; s.c.
  ED50: > 4.0 mg/kg

## C[C@@H](SCc1nccn1C(CF)CF)[C@](O)(Cn1cncn1)c1ccc(F)cc1F (relative stereo) [Compound 59]
[1]; [4]
  zone of inhibition at 1000 µg/mL: 30 mm
Candida albicans [2]; [5]
  ED50: 1.4 mg/kg

## C[C@@H](SCCn1cncn1)[C@](O)(Cn1cncn1)c1ccc(F)cc1F (relative stereo) [13(hydrochloride)]
[1]; [4]
  zone of inhibition at 1000 µg/mL: 25 mm
Candida albicans [2]; [5]
  ED50: 10 mg/kg

## CCn1ccnc1CS[C@H](C)[C@](O)(Cn1cncn1)c1ccc(F)cc1F (relative stereo) [Compound 46]
[1]; [4]
  zone of inhibition at 1000 µg/mL: 27 mm
Candida albicans [2]; [5]
  ED50: 0.7 mg/kg

## C[C@@H](SCc1nccn1CC(F)F)[C@](O)(Cn1cncn1)c1ccc(F)cc1F (relative stereo) [Compound 54]
[1]; [4]
  zone of inhibition at 1000 µg/mL: 25 mm
Candida albicans [2]; [5]
  ED50: 0.5 mg/kg

## C[C@@H](SCc1nc2c(s1)CCC2)[C@](O)(Cn1cncn1)c1ccc(F)cc1F (relative stereo) [Compound 25]
[1]; [4]
  zone of inhibition at 1000 µg/mL: 40 mm
Candida albicans [2]; [5]
  ED50: 3.2 mg/kg

## C[C@@H](SCc1ncc2cnccn12)[C@](O)(Cn1cncn1)c1ccc(F)cc1F (relative stereo) [Compound 57, (2RS,3RS)-2-(2,4-difluorophenyl)-3-(imidazo[1,5-a]pyradin-3-yl)methylthio-1-(1H-1,2,4-triazol-1-yl)-2-butanol]
[1]; [4]
  zone of inhibition at 1000 µg/mL: 30 mm
Candida albicans [2]; [5]
  ED50: 0.5 mg/kg

## O=S(=O)(CCn1cncn1)CC(O)(Cn1cncn1)c1ccc(F)cc1F (centres unmarked) [Compound 3]
[1]; [7]
  zone of inhibition at 1000 µg/mL: 13 mm
Candida albicans [2]; [5]
  ED50: 32.4 mg/kg

## CSc1nnc(CS[C@H](C)[C@](O)(Cn2cncn2)c2ccc(F)cc2F)n1C (relative stereo) [Compound 34]
[1]; [4]
  zone of inhibition at 1000 µg/mL: 30 mm
Candida albicans [2]; [5]
  ED50: 3.2 mg/kg

## Cc1ncc(CS[C@H](C)[C@](O)(Cn2cncn2)c2ccc(F)cc2F)s1 (relative stereo) [Compound 53]
[1]; [4]
  zone of inhibition at 1000 µg/mL: 35 mm
Candida albicans [2]; [5]
  ED50: 2 mg/kg

## CC(n1cncn1)C(O)(CS)c1ccc(F)cc1F (single isomer, unassigned) [Compound 115, 2-(2,4-difluorophenyl)-1-mercapto-3-[(1H)-1,2,4-triazol-1-yl]-2-butanol]
[1]; [4]
  zone of inhibition at 1000 µg/mL: 33 mm
Candida albicans [2]; [5]
  ED50: > 4 mg/kg

Source: patent publication US5405861A, “Triazole compounds and antifungal compositions thereof” (Takeda Chemical Industries, Co., Ltd., priority 1989, dated 1995)
